This note sets out measurements from patent publication US20240228482A1, “COMPOUNDS, COMPOSITIONS AND METHODS OF TREATING CANCER” (HOTSPOT THERAPEUTICS, INC., priority 2021, published 2024).

For the experiment, the target named is T1, CBL-B (Homo sapiens, UniProt Q13191).
T1 construct: GST
T1 sequence (Q13191 whole entry): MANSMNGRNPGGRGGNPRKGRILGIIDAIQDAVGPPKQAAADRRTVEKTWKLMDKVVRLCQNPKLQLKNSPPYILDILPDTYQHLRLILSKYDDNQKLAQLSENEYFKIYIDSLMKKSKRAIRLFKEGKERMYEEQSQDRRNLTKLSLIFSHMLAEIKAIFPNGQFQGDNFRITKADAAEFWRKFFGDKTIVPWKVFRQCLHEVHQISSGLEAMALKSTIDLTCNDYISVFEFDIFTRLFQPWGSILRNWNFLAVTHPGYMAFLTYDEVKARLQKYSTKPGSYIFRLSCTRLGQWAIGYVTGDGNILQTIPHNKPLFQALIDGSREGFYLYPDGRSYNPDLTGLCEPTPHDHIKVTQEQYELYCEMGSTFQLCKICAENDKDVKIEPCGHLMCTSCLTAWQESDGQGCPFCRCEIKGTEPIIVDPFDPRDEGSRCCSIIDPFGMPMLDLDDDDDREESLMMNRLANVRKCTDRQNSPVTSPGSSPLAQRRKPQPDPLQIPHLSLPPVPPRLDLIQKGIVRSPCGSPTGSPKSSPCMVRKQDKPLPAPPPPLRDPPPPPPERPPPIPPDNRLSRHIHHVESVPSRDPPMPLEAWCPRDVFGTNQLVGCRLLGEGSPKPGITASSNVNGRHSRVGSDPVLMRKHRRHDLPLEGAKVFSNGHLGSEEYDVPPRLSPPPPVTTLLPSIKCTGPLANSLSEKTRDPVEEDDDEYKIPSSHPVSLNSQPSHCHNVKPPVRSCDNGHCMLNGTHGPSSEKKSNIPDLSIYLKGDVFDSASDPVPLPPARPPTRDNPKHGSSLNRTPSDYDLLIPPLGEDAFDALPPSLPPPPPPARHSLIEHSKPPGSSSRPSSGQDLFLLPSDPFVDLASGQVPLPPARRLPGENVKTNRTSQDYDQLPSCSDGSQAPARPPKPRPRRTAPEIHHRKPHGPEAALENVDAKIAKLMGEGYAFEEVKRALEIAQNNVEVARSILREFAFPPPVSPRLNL
In words: CBL-B TR-FRET IC50 screening (E1/E2 ubiquitination, Biotin-Ubiquitin, Anti GST-Tb donor / Streptavidin-d2 acceptor). The format is biochemical. The settings on record: CBL-B 10 nM final; 11-point titration from 100 uM; binned A-F; read-out: CBL-B TR-FRET activity IC50.
Take `CC(c1cc(C(F)(F)F)c2cn(-c3cccc([C@H](c4nncn4C)C4CCC4)c3)c(=O)n2c1)N1CCC[C@H](C)C1` (single isomer, unassigned) [Compound 194]: the IC50 was below 100 nM.

For `C[C@H]1CCCN(C(c2cc(C(F)(F)F)c3cn(-c4cccc(C5(Cc6nncn6C)COC5)c4)c(=O)n3c2)C(F)(F)F)C1` (single isomer, unassigned) [Compound 195], the half-maximal inhibitory concentration (IC50) lay within 100 to 300 nM.

Consider `C[C@H]1CCCN(C(c2cc(C(F)(F)F)c3cn(-c4cccc(C5(Cc6nncn6C)COC5)c4)c(=O)n3c2)C(F)(F)F)C1` (single isomer, unassigned) [Compound 196], for which the IC50 lay within 301 to 1000 nM.

On to `C[C@H]1CCCN(Cc2cc(C(F)(F)F)c3cn(-c4cccc([C@H](c5nncs5)C5CCC5)c4)c(=O)n3c2)C1` (single isomer, unassigned) [Compound 202], for which the IC50 is below 100 nM.

On to `C[C@H]1CCCN(Cc2cc(C(F)(F)F)c3cn(-c4cccc([C@@H](c5nncs5)C5CCC5)c4)c(=O)n3c2)C1` (single isomer, unassigned) [Compound 203], for which the IC50 lay in the range of 301 to 1000 nM.

`C[C@@H]1CN(Cc2cc(C(F)(F)F)c3cn(-c4cccc([C@]5(Cc6nncn6C)C[C@H](C#N)C5)c4)c(=O)n3c2)CCC1(F)F` (single isomer, unassigned) [Compound 204]: the IC50 was below 100 nM.

For `C[C@H]1CN(Cc2cc(C(F)(F)F)c3cn(-c4cccc([C@]5(Cc6nncn6C)C[C@H](C#N)C5)c4)c(=O)n3c2)CCC1(F)F` (single isomer, unassigned) [Compound 205], the concentration for half-maximal inhibition (IC50) was below 100 nM.

With `C[C@@H]1CN(Cc2cc(C(F)(F)F)c3cn(-c4cccc([C@]5(c6nncn6C)C[C@@H](C)C5)c4)c(=O)n3c2)CCO1` (single isomer, unassigned) [Compound 213], the half-inhibitory concentration (IC50) was below 100 nM.

On to `[2H]C([2H])([2H])n1cnnc1[C@]1(c2cccc(-n3cc4c(C(F)(F)F)cc(CN5CCC[C@H](C)C5)cn4c3=O)c2)C[C@@H](C)C1` (single isomer, unassigned) [Compound 214], for which the IC50 was below 100 nM.

As to `Cn1cnnc1[C@]1(c2cccc(-n3cc4c(C(F)(F)F)cc(CN5CCC6(CC6)C5)cn4c3=O)c2)C[C@@H](C)C1` (single isomer, unassigned) [Compound 215], the 50% inhibitory concentration (IC50) was below 100 nM.

Turning to `Cn1cnnc1[C@]1(c2cccc(-n3cc4c(C(F)(F)F)cc(CN5CCC(C)(F)CC5)cn4c3=O)c2)C[C@@H](C)C1` (single isomer, unassigned) [Compound 217], the IC50 is below 100 nM.

Take `Cn1cnnc1[C@]1(c2cccc(-n3cc4c(C(F)(F)F)cc(CN5CCC6(CC6)C5)cn4c3=O)c2)C[C@H](C)C1` (single isomer, unassigned) [Compound 222]: the IC50 was below 100 nM.

As to `C[C@H]1CCCN(Cc2cc(C(F)(F)F)c3cn(-c4cc([C@@H](c5nncn5C)C5CCC5)cc(C(F)(F)F)c4)c(=O)n3c2)C1` (single isomer, unassigned) [Compound 223], the half-maximal inhibitory concentration (IC50) was below 100 nM.

As for `C[C@H]1CCCN(Cc2cc(C(F)(F)F)c3cn(-c4cc([C@H](c5nncn5C)C5CCC5)cc(C(F)(F)F)c4)c(=O)n3c2)C1` (single isomer, unassigned) [Compound 224], the IC50 was above 10000 nM.

Take `Cn1cnnc1[C@]1(c2cccc(-n3cc4c(C(F)(F)F)cc(CN5CC[C@H](F)C5)cn4c3=O)c2)C[C@H](C)C1` (single isomer, unassigned) [Compound 226]: the IC50 is below 100 nM.

On to `Cn1cnnc1[C@]1(c2cccc(-n3cc4c(C(F)(F)F)cc(CN5CCC(C)(F)CC5)cn4c3=O)c2)C[C@H](C)C1` (single isomer, unassigned) [Compound 227], for which the IC50 is below 100 nM.

Regarding `C[C@@H]1CN([C@H](C)c2cc(C(F)(F)F)c3cn(-c4cccc([C@@H](c5nncn5C)C5CCC5)c4)c(=O)n3c2)CCO1` (single isomer, unassigned) [Compound 231], the IC50 was in the range of 3000 to 10000 nM.

As to `C[C@@H]1CN([C@@H](C)c2cc(C(F)(F)F)c3cn(-c4cccc([C@@H](c5nncn5C)C5CCC5)c4)c(=O)n3c2)CCO1` (single isomer, unassigned) [Compound 232], the IC50 lay in the range of 301 to 1000 nM.

As for `C[C@@H]1CN([C@H](C)c2cc(C(F)(F)F)c3cn(-c4cccc([C@H](c5nncn5C)C5CCC5)c4)c(=O)n3c2)CCO1` (single isomer, unassigned) [Compound 233], the IC50 is below 100 nM.

In the case of `C[C@@H]1CN([C@@H](C)c2cc(C(F)(F)F)c3cn(-c4cccc([C@H](c5nncn5C)C5CCC5)c4)c(=O)n3c2)CCO1` (single isomer, unassigned) [Compound 234], the IC50 was below 100 nM.

For `COC1CCN(Cc2cc(C(F)(F)F)c3cn(-c4cccc([C@@H](c5nncn5C)C5CCC5)c4)c(=O)n3c2)CC1` (single isomer, unassigned) [Compound 235], the IC50 was 1000 to 3000 nM.

On to `Cn1cnnc1[C@]1(c2cccc(-n3cc4c(C(F)(F)F)cc(CN5CC6(CC6)C5)cn4c3=O)c2)C[C@H](C)C1` (single isomer, unassigned) [Compound 236], for which the IC50 is below 100 nM.

As for `Cn1cnnc1[C@]1(c2cccc(-n3cc4c(C(F)(F)F)cc(CN5CCC(F)CC5)cn4c3=O)c2)C[C@H](C)C1` (single isomer, unassigned) [Compound 237], the IC50 is below 100 nM.

As to `C[C@H]1CCCN(Cc2cc(C(F)(F)F)c3cn(-c4cc(F)cc([C@@H](c5nncn5C)C5CCC5)c4)c(=O)n3c2)C1` (single isomer, unassigned) [Compound 242], the IC50 was above 10000 nM.

On to `C[C@H]1CCCN(Cc2cc(C(F)(F)F)c3cn(-c4cc(F)cc([C@H](c5nncn5C)C5CCC5)c4)c(=O)n3c2)C1` (single isomer, unassigned) [Compound 243], for which the IC50 was below 100 nM.

For the compound `C[C@H]1CCCN([C@@H](c2cc(C(F)(F)F)c3cn(-c4cccc([C@@H](c5nncn5C)C5CCC5)c4)c(=O)n3c2)C(F)(F)F)C1` (single isomer, unassigned) [Compound 256], the IC50 is above 10000 nM.

`C[C@H]1CCCN([C@H](c2cc(C(F)(F)F)c3cn(-c4cccc([C@@H](c5nncn5C)C5CCC5)c4)c(=O)n3c2)C(F)(F)F)C1` (single isomer, unassigned) [Compound 257]: the IC50 was above 10000 nM.

For the compound `CO[C@H]1CCCCN(Cc2cc(C(F)(F)F)c3cn(-c4cccc([C@H](c5nncn5C)C5CCC5)c4)c(=O)n3c2)C1` (single isomer, unassigned) [Compound 261], the IC50 was below 100 nM.

As for `CO[C@@H]1CCCCN(Cc2cc(C(F)(F)F)c3cn(-c4cccc([C@H](c5nncn5C)C5CCC5)c4)c(=O)n3c2)C1` (single isomer, unassigned) [Compound 262], the IC50 is below 100 nM.

On to `CO[C@H]1CCCN(Cc2cc(C(F)(F)F)c3cn(-c4cccc([C@H](c5nncn5C)C5CCC5)c4)c(=O)n3c2)CC1` (single isomer, unassigned) [Compound 263], for which the IC50 was below 100 nM.

In the case of `CO[C@@H]1CCCN(Cc2cc(C(F)(F)F)c3cn(-c4cccc([C@H](c5nncn5C)C5CCC5)c4)c(=O)n3c2)CC1` (single isomer, unassigned) [Compound 264], the IC50 is below 100 nM.

For `Cn1cnnc1[C@@H](c1cccc(-n2cc3c(C(F)(F)F)cc(CN4CCC[C@H](C(F)(F)F)C4)cn3c2=O)c1)C1CCC1` (single isomer, unassigned) [Compound 271], the half-inhibitory concentration (IC50) is below 100 nM.

For the compound `Cn1cnnc1[C@@H](c1cccc(-n2cc3c(C(F)(F)F)cc(CN4CCC[C@@H](C(F)(F)F)C4)cn3c2=O)c1)C1CCC1` (single isomer, unassigned) [Compound 272], the IC50 is below 100 nM.

With `C[C@H]1CCCCN(Cc2cc(C(F)(F)F)c3cn(-c4cccc([C@H](c5nncn5C)C5CCC5)c4)c(=O)n3c2)C1` (single isomer, unassigned) [Compound 273], the IC50 is below 100 nM.

Regarding `C[C@@H]1CCCCN(Cc2cc(C(F)(F)F)c3cn(-c4cccc([C@H](c5nncn5C)C5CCC5)c4)c(=O)n3c2)C1` (single isomer, unassigned) [Compound 274], the IC50 is below 100 nM.

Turning to `Cc1scnc1[C@H](c1cccc(-n2cc3c(C(F)(F)F)cc(CN4CCC[C@H](C)C4)cn3c2=O)c1)C1CCC1` (single isomer, unassigned) [Compound 282], the IC50 was above 10000 nM.

For the compound `Cc1scnc1[C@@H](c1cccc(-n2cc3c(C(F)(F)F)cc(CN4CCC[C@H](C)C4)cn3c2=O)c1)C1CCC1` (single isomer, unassigned) [Compound 283], the IC50 was above 10000 nM.

Turning to `Cn1cnnc1[C@@H](c1cccc(-n2cc3c(C(F)(F)F)cc(CN4CC[C@@H](C(F)(F)F)C4)cn3c2=O)c1)C1CCC1` (single isomer, unassigned) [Compound 285], the IC50 was in the range of 100 to 300 nM.

In the case of `C[C@H]1CCCN(Cc2cc(C(F)(F)F)c3cn(-c4cc(C#N)cc([C@@H](c5nncn5C)C5CCC5)c4)c(=O)n3c2)C1` (single isomer, unassigned) [Compound 288], the 50% inhibitory concentration (IC50) is below 100 nM.

With `C[C@H]1CCCN(Cc2cc(C(F)(F)F)c3cn(-c4cc(C#N)cc([C@H](c5nncn5C)C5CCC5)c4)c(=O)n3c2)C1` (single isomer, unassigned) [Compound 289], the IC50 was above 10000 nM.

`C[C@H]1CCCN(Cc2cc(C(F)(F)F)c3cn(-c4cccc([C@]5(c6nncs6)C[C@@H](C)C5)c4)c(=O)n3c2)C1` (single isomer, unassigned) [Compound 292]: the IC50 fell in the range of 100 to 300 nM.

`C[C@H]1CCCN(Cc2cc(C(F)(F)F)c3cn(-c4cccc([C@]5(c6nncs6)C[C@H](C)C5)c4)c(=O)n3c2)C1` (single isomer, unassigned) [Compound 293]: the IC50 is 100 to 300 nM.

On to `C[C@H]1CCCN(Cc2cc(C(F)(F)F)c3cn(-c4cccc([C@]5(c6nncn6C)C[C@H](O)C5)c4)c(=O)n3c2)C1` (single isomer, unassigned) [Compound 301], for which the IC50 lay within 100 to 300 nM.

Take `Cc1conc1[C@H](c1cccc(-n2cc3c(C(F)(F)F)cc(CN4CCC[C@H](C)C4)cn3c2=O)c1)C1CCC1` (single isomer, unassigned) [Compound 302]: the IC50 lay within 301 to 1000 nM.

`Cc1conc1[C@@H](c1cccc(-n2cc3c(C(F)(F)F)cc(CN4CCC[C@H](C)C4)cn3c2=O)c1)C1CCC1` (single isomer, unassigned) [Compound 303]: the IC50 was above 10000 nM.
